US10865211B2 (ENANTA PHARMACEUTICALS, INC, priority 2018, dated 2020)

Key:
2.2.15 cells = assay: Antiviral activity in 2.2.15 cells: reduction of viral product accumulation (qPCR, HBsAg/HBeAg ELISA); type: cell-based, HBV; settings: Hepatitis B virus, 120 h, day 5 post treatment, concentration reducing viral product accumulation in cell lysates or supernatants by 50% relative to no drug controls
Experimental: 2.2.15 cells are passaged upon attaining confluency in DMEM/F12 media in the presence of 10% FBS, Penn/Strep, and 250 ug/mL G418. Novel compounds are 5 fold serially diluted in DMSO and added to 96 well plates containing 35,000 cells/well at a 1:200 dilution so that the final concentration of DMSO is 0.5%. On day 5, post treatment cell lysates and supernatants are harvested for analysis.
Cells are lysed using Agilent Sidestep Lysis buffer, diluted 1:100 and quantified via quantitative real time PCR. Commercially available ELISA kits are used to quantitate the viral proteins HBsAg (Alpco) or HBeAg (US Biological) by following the manufacturer's recommended protocol after diluting samples to match the linear range of their respective assays. Irrespective of readout, compound concentrations that reduce viral product accumulation in the cell lysates or supernatants by 50% relative to no drug controls (EC50) are reported; EC50 ranges are as follows: A<0.1 μM; B 0.1-1 μM; C>1 μM.

[1] = Compound induced cellular toxicity in HepG2 cells (ATPlite); type: cell-based; settings: human, three days, ATPlite 1 Step, concentration reducing total ATP levels by 50% relative to no drug controls
Experimental: At day 3, post seeding cells are treated with ATPlite 1 Step according to the manufacturer's instructions.

SMILES | EC50 (2.2.15 cells) | CC50 at 3 days [1]
CC(C)(C)[C@@H]1Cc2c(oc3c(-c4ccn[nH]4)cccc23)-c2c(F)c(=O)c(C(=O)O)cn21 [Example 51, (S)-6-(tert-butyl)-1-fluoro-2-oxo-11-(1H-pyrazol-5-yl)-6,7-dihydro-2H-benzofuro[2,3-a]quinolizine-3-carboxylic acid] | < 0.1 µM | > 25 µM
CC(C)(C)[C@@H]1Cc2c(oc3c(-c4cnsc4)cccc23)-c2c(F)c(=O)c(C(=O)O)cn21 [Example 52, (S)-6-(tert-butyl)-1-fluoro-11-(isothiazol-4-yl)-2-oxo-6,7-dihydro-2H-benzofuro[2,3-a]quinolizine-3-carboxylic acid] | < 0.1 µM | > 25 µM
CC(C)(C)[C@@H]1Cc2c(oc3c(C#N)cccc23)-c2c(F)c(=O)c(C(=O)O)cn21 [Example 53, (S)-6-(tert-butyl)-11-cyano-1-fluoro-2-oxo-6,7-dihydro-2H-benzofuro[2,3-a]quinolizine-3-carboxylic acid] | < 0.1 µM | > 25 µM
CC(C)(C)[C@@H]1Cc2c(oc3c(-c4cccs4)cccc23)-c2c(F)c(=O)c(C(=O)O)cn21 [Example 54, (S)-6-(tert-butyl)-1-fluoro-2-oxo-11-(thiophen-2-yl)-6,7-dihydro-2H-benzofuro[2,3-a]quinolizine-3-carboxylic acid] | < 0.1 µM | > 25 µM
Cn1cc(-c2cccc3c4c(oc23)-c2c(F)c(=O)c(C(=O)O)cn2[C@H](C(C)(C)C)C4)cn1 [Example 55, (S)-6-(tert-butyl)-1-fluoro-11-(1-methyl-1H-pyrazol-4-yl)-2-oxo-6,7-dihydro-2H-benzofuro[2,3-a]quinolizine-3-carboxylic acid] | < 0.1 µM | > 25 µM
CC(C)(C)[C@@H]1Cc2c(oc3c(-c4ccsc4)cccc23)-c2c(F)c(=O)c(C(=O)O)cn21 [Example 57, (S)-6-(tert-butyl)-1-fluoro-2-oxo-11-(thiophen-3-yl)-6,7-dihydro-2H-benzofuro[2,3-a]quinolizine-3-carboxylic acid] | < 0.1 µM | > 25 µM
CC(C)(C)[C@@H]1Cc2c(oc3c(-c4cnco4)cccc23)-c2c(F)c(=O)c(C(=O)O)cn21 [Example 58, (S)-6-(tert-butyl)-1-fluoro-11-(oxazol-5-yl)-2-oxo-6,7-dihydro-2H-benzofuro[2,3-a]quinolizine-3-carboxylic acid] | < 0.1 µM | > 25 µM
Cn1nccc1-c1cccc2c3c(oc12)-c1c(F)c(=O)c(C(=O)O)cn1[C@H](C(C)(C)C)C3 [Example 59, (S)-6-(tert-butyl)-1-fluoro-11-(1-methyl-1H-pyrazol-5-yl)-2-oxo-6,7-dihydro-2H-benzofuro[2,3-a]quinolizine-3-carboxylic acid] | < 0.1 µM | > 25 µM
CC(C)(C)[C@@H]1Cc2c(oc3c(-c4nccs4)cccc23)-c2c(F)c(=O)c(C(=O)O)cn21 [Example 61, (S)-6-(tert-butyl)-1-fluoro-2-oxo-11-(thiazol-2-yl)-6,7-dihydro-2H-benzofuro[2,3-a]quinolizine-3-carboxylic acid] | < 0.1 µM | > 25 µM
CC(C)(C)[C@@H]1Cc2c(oc3c(-c4cscn4)cccc23)-c2c(F)c(=O)c(C(=O)O)cn21 [Example 62, (S)-6-(tert-butyl)-1-fluoro-2-oxo-11-(thiazol-4-yl)-6,7-dihydro-2H-benzofuro[2,3-a]quinolizine-3-carboxylic acid] | < 0.1 µM | 10 to 25 µM
CC(C)(C)[C@@H]1Cc2c(oc3c(-n4cccn4)cccc23)-c2c(F)c(=O)c(C(=O)O)cn21 [Example 63, (S)-6-(tert-butyl)-1-fluoro-2-oxo-11-(1H-pyrazol-1-yl)-6,7-dihydro-2H-benzofuro[2,3-a]quinolizine-3-carboxylic acid] | < 0.1 µM | > 25 µM
Cc1cccc2c3c(oc12)-c1c(F)c(=O)c(C(=O)O)cn1[C@H](C(C)(C)C)C3 [Example 64, (S)-6-(tert-butyl)-1-fluoro-11-methyl-2-oxo-6,7-dihydro-2H-benzofuro[2,3-a]quinolizine-3-carboxylic acid] | < 0.1 µM | > 25 µM
CC(C)(C)[C@@H]1Cc2c(oc3c(C4CC4)cccc23)-c2c(F)c(=O)c(C(=O)O)cn21 [Example 65, (S)-6-(tert-butyl)-11-cyclopropyl-1-fluoro-2-oxo-6,7-dihydro-2H-benzofuro[2,3-a]quinolizine-3-carboxylic acid] | < 0.1 µM | > 25 µM
CC(C)[C@@H]1Cc2c(oc3c(-c4ccoc4)cccc23)-c2cc(=O)c(C(=O)O)cn21 [Example 66, (S)-11-(furan-3-yl)-6-isopropyl-2-oxo-6,7-dihydro-2H-benzofuro[2,3-a]quinolizine-3-carboxylic acid] | < 0.1 µM | 10 to 25 µM
CC(C)[C@@H]1Cc2c(oc3c(-c4ccco4)cccc23)-c2cc(=O)c(C(=O)O)cn21 [Example 67, (S)-11-(furan-2-yl)-6-isopropyl-2-oxo-6,7-dihydro-2H-benzofuro[2,3-a]quinolizine-3-carboxylic acid] | < 0.1 µM | 10 to 25 µM
CC(C)[C@@H]1Cc2c(oc3cc(OC(F)F)ccc23)-c2cc(=O)c(C(=O)O)cn21 [Example 68, (S)-10-(difluoromethoxy)-6-isopropyl-2-oxo-6,7-dihydro-2H-benzofuro[2,3-a]quinolizine-3-carboxylic acid] | < 0.1 µM | < 10 µM
CC(C)[C@@H]1Cc2c(oc3cc(C#N)ccc23)-c2cc(=O)c(C(=O)O)cn21 [Example 69, (S)-10-cyano-6-isopropyl-2-oxo-6,7-dihydro-2H-benzofuro[2,3-a]quinolizine-3-carboxylic acid] | < 0.1 µM | > 25 µM
CC(C)[C@@H]1Cc2c(oc3c(-c4cnsc4)cccc23)-c2cc(=O)c(C(=O)O)cn21 [Example 70, (S)-6-isopropyl-11-(isothiazol-4-yl)-2-oxo-6,7-dihydro-2H-benzofuro[2,3-a]quinolizine-3-carboxylic acid] | < 0.1 µM | > 25 µM
CC(C)[C@@H]1Cc2c(oc3c(N4CCC(F)(F)C4)cccc23)-c2cc(=O)c(C(=O)O)cn21 [Example 71] | < 0.1 µM | < 10 µM
CC(C)[C@@H]1Cc2c(oc3cc(-n4cccn4)ccc23)-c2cc(=O)c(C(=O)O)cn21 [Example 72, (S)-6-isopropyl-2-oxo-10-(1H-pyrazol-1-yl)-6,7-dihydro-2H-benzofuro[2,3-a]quinolizine-3-carboxylic acid] | < 0.1 µM | < 10 µM
Cc1ccc2c3c(oc2c1)-c1cc(=O)c(C(=O)O)cn1[C@H](C(C)C)C3 [Example 73, (S)-6-isopropyl-10-methyl-2-oxo-6,7-dihydro-2H-benzofuro[2,3-a]quinolizine-3-carboxylic acid] | < 0.1 µM | > 25 µM
CC(C)[C@@H]1Cc2c(oc3cc(C4CC4)ccc23)-c2cc(=O)c(C(=O)O)cn21 [Example 74, (S)-10-cyclopropyl-6-isopropyl-2-oxo-6,7-dihydro-2H-benzofuro[2,3-a]quinolizine-3-carboxylic acid] | < 0.1 µM | 10 to 25 µM
CC(C)[C@@H]1Cc2c(oc3cc(-c4ccsc4)ccc23)-c2cc(=O)c(C(=O)O)cn21 [Example 76, (S)-6-isopropyl-2-oxo-10-(thiophen-3-yl)-6,7-dihydro-2H-benzofuro[2,3-a]quinolizine-3-carboxylic acid] | < 0.1 µM | > 25 µM
CC(C)[C@@H]1Cc2c(oc3c(OC(F)F)cccc23)-c2cc(=O)c(C(=O)O)cn21 [Example 77, (S)-11-(difluoromethoxy)-6-isopropyl-2-oxo-6,7-dihydro-2H-benzofuro[2,3-a]quinolizine-3-carboxylic acid] | < 0.1 µM | > 25 µM
CC(C)[C@@H]1Cc2c(oc3c(C#N)cccc23)-c2cc(=O)c(C(=O)O)cn21 [Example 78, (S)-11-cyano-6-isopropyl-2-oxo-6,7-dihydro-2H-benzofuro[2,3-a]quinolizine-3-carboxylic acid] | < 0.1 µM | > 25 µM
CC(C)[C@@H]1Cc2c(oc3c(-c4cccs4)cccc23)-c2cc(=O)c(C(=O)O)cn21 [Example 79, (S)-6-isopropyl-2-oxo-11-(thiophen-2-yl)-6,7-dihydro-2H-benzofuro[2,3-a]quinolizine-3-carboxylic acid] | < 0.1 µM | < 10 µM
CC(C)[C@@H]1Cc2c(oc3c(-c4ccsc4)cccc23)-c2cc(=O)c(C(=O)O)cn21 [Example 80, (S)-6-isopropyl-2-oxo-11-(thiophen-3-yl)-6,7-dihydro-2H-benzofuro[2,3-a]quinolizine-3-carboxylic acid] | < 0.1 µM | < 10 µM
CC(C)[C@@H]1Cc2c(oc3c(-n4cccn4)cccc23)-c2cc(=O)c(C(=O)O)cn21 [Example 81, (S)-6-isopropyl-2-oxo-11-(1H-pyrazol-1-yl)-6,7-dihydro-2H-benzofuro[2,3-a]quinolizine-3-carboxylic acid] | < 0.1 µM | > 25 µM
Cc1cccc2c3c(oc12)-c1cc(=O)c(C(=O)O)cn1[C@H](C(C)C)C3 [Example 82, (S)-6-isopropyl-11-methyl-2-oxo-6,7-dihydro-2H-benzofuro[2,3-a]quinolizine-3-carboxylic acid] | < 0.1 µM | > 25 µM
